In the assay the test system is L1210 leukemia ip in BDF1 mice, survival T/C. Put plainly: NCI In Vivo Anticancer Drug Screen. Data for tumor model L1210 Leukemia (intraperitoneal) in B6D2F1 (BDF1) mice. The following applies: endpoint: mean survival time, higher = longer survival. The method in brief: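 Mice bearing the transplanted tumor received compound or vehicle. Survival of the treated group was divided by that of the vehicle-treated control group to give the ratio.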

Setting [1] is: dose: 100.0 mg/kg/injection, schedule: Q04DX003 (ip), vehicle: saline with Tween-80.
[2] abbreviates: dose: 200.0 mg/kg/injection, schedule: Q04DX003 (ip), vehicle: saline with Tween-80.
Where [3] appears, read: dose: 100.0 mg/kg/injection, schedule: Q01DX009 (ip), vehicle: saline with Tween-80.
Where [4] appears, read: dose: 100.0 mg/kg/injection, schedule: Q01DX001 (ip), vehicle: carboxymethylcellulose (CMC).
Where [5] appears, read: dose: 100.0 mg/kg/injection, schedule: Q04DX003 (ip), vehicle: Klucel (hydroxypropylcellulose) (HPC).
Where [6] appears, read: dose: 200.0 mg/kg/injection, schedule: Q04DX003 (ip), vehicle: Klucel (hydroxypropylcellulose) (HPC).

Where “and” joins values, the source holds several entries; their conditions need not be identical. Identical values can stand only once. Inconclusive results and toxic doses are left out.

Consider `CCCCCCCCCCCCCCCc1cc(=O)n(C)n1C`, for which the T/C was 93 % of control under setting [1] and 94 % of control under setting [2].
`COc1ccc2ccccc2c1C(=O)CCC(=O)O`: the T/C is, setting by setting: (dose: 87.0 mg/kg/injection, schedule: Q04DX003 (ip), vehicle: Klucel (hydroxypropylcellulose) (HPC)) 97 % of control; (dose: 175.0 mg/kg/injection, schedule: Q04DX003 (ip), vehicle: Klucel (hydroxypropylcellulose) (HPC)) 93 % of control; (dose: 350.0 mg/kg/injection, schedule: Q04DX003 (ip), vehicle: Klucel (hydroxypropylcellulose) (HPC)) 102 % of control.
Take `Clc1cc2c(cc1CO/N=C\c1ccc3c(c1)OCO3)OCO2`: the T/C was 90 % of control (dose: 100.0 mg/kg/injection, schedule: Q04DX003 (ip), vehicle: saline sonified) and 88 % of control (dose: 200.0 mg/kg/injection, schedule: Q04DX003 (ip), vehicle: saline sonified).
On to `C=C(C)C1Cc2c(ccc3c2OC2COc4cc(OC)c(OC)cc4C2(O)C3=O)O1` (centres undefined), for which the T/C (dose: 12.5 mg/kg/injection, schedule: Q01DX009 (ip), vehicle: carboxymethylcellulose (CMC)) was 107 % of control.
Take `COC(=O)C1=C(NC(=O)Nc2ccc([N+](=O)[O-])cc2)OC(C)(C)C1c1ccc(Cl)cc1` (centres undefined): the T/C was 92 % of control (dose: 100.0 mg/kg/injection, schedule: Q04DX003 (ip), vehicle: acetone); 97 % of control (dose: 200.0 mg/kg/injection, schedule: Q04DX003 (ip), vehicle: acetone); 97 % of control (dose: 400.0 mg/kg/injection, schedule: Q04DX003 (ip), vehicle: acetone).
With `CCCC(C=NCC(CCC)(CCN(C)C)c1cccc2ccccc12)(CCN(C)C)c1cccc2ccccc12` (centres undefined), the T/C (dose: 6.25 mg/kg/injection, schedule: Q04DX002 (ip), vehicle: Klucel (hydroxypropylcellulose) (HPC)) was 88 % of control; the T/C (dose: 12.5 mg/kg/injection, schedule: Q04DX002 (ip), vehicle: Klucel (hydroxypropylcellulose) (HPC)) is 101 % of control; the T/C (dose: 25.0 mg/kg/injection, schedule: Q04DX002 (ip), vehicle: Klucel (hydroxypropylcellulose) (HPC)) was 104 % of control.
With `CCOc1ccc(NC(=O)NCBr)cc1`, the T/C was 106 % of control (dose: 12.5 mg/kg/injection, schedule: Q01DX009 (ip), vehicle: saline with Tween-80); 95 % of control (dose: 25.0 mg/kg/injection, schedule: Q01DX009 (ip), vehicle: saline with Tween-80); 87 % of control (dose: 50.0 mg/kg/injection, schedule: Q01DX009 (ip), vehicle: saline with Tween-80); 87 % of control under setting [3].
For `N#CCCN1CCCCCC1`, the T/C was 98 % of control (dose: 15.0 mg/kg/injection, schedule: Q01DX009 (ip), vehicle: saline with Tween-80); 95 % of control (dose: 30.0 mg/kg/injection, schedule: Q01DX009 (ip), vehicle: saline with Tween-80); 92 % of control (dose: 30.0 mg/kg/injection, schedule: Q04DX003 (ip), vehicle: saline with Tween-80); 104 % of control (dose: 60.0 mg/kg/injection, schedule: Q01DX009 (ip), vehicle: saline with Tween-80); 109 % of control (dose: 60.0 mg/kg/injection, schedule: Q04DX003 (ip), vehicle: saline with Tween-80).
For the compound `Cc1cc(C(C(N)=O)c2ccccc2)ccc1N(CCCl)CCCl` (centres undefined), the T/C was 116 % of control (dose: 2.0 mg/kg/injection, schedule: Q01DX009 (ip), vehicle: carboxymethylcellulose (CMC)); 121 % of control (dose: 3.7 mg/kg/injection, schedule: Q01DX015 (ip), vehicle: carboxymethylcellulose (CMC)); 124 % of control (dose: 4.0 mg/kg/injection, schedule: Q01DX009 (ip), vehicle: carboxymethylcellulose (CMC)); 104 % of control (dose: 7.2 mg/kg/injection, schedule: Q04DX003 (ip), vehicle: acetone); 153 % of control (dose: 20.0 mg/kg/injection, schedule: Q01DX009 (ip), vehicle: Klucel (hydroxypropylcellulose) (HPC)); 109 % of control and 121 % of control (dose: 21.0 mg/kg/injection, schedule: Q04DX003 (ip), vehicle: acetone). Besides, the T/C is 112 % of control (dose: 21.0 mg/kg/injection, schedule: Q04DX003 (ip), vehicle: saline); 118 % of control (dose: 33.0 mg/kg/injection, schedule: Q04DX003 (ip), vehicle: saline); 86 % of control (dose: 37.5 mg/kg/injection, schedule: Q01DX009 (ip), vehicle: saline with Tween-80); 101 % of control (dose: 40.0 mg/kg/injection, schedule: Q01DX009 (ip), vehicle: Klucel (hydroxypropylcellulose) (HPC)); 95 % of control (dose: 45.0 mg/kg/injection, schedule: Q01DX015 (ip), vehicle: carboxymethylcellulose (CMC)); 120 % of control (dose: 49.0 mg/kg/injection, schedule: Q04DX003 (ip), vehicle: acetone). In addition, the T/C reads like this: (dose: 50.0 mg/kg/injection, schedule: Q01DX001 (ip), vehicle: carboxymethylcellulose (CMC)) 114 % of control; (dose: 50.0 mg/kg/injection, schedule: Q04DX003 (ip), vehicle: acetone) 123 % of control; (dose: 50.0 mg/kg/injection, schedule: Q04DX003 (ip), vehicle: saline) 106 % of control; (dose: 64.0 mg/kg/injection, schedule: Q01DX009 (ip), vehicle: carboxymethylcellulose (CMC)) 106 % of control; (dose: 66.0 mg/kg/injection, schedule: Q01DX001 (ip), vehicle: saline) 116 % of control; (dose: 66.0 mg/kg/injection, schedule: Q04DX003 (ip), vehicle: acetone) 112 % of control. The T/C runs as follows: (dose: 88.8 mg/kg/injection, schedule: Q01DX001 (ip), vehicle: carboxymethylcellulose (CMC)) 123 % of control; under setting [4], 112 % of control; (dose: 100.0 mg/kg/injection, schedule: Q01DX001 (ip), vehicle: saline) 100 % of control; (dose: 150.0 mg/kg/injection, schedule: Q04DX003 (ip), vehicle: acetone) 96 % of control; (dose: 300.0 mg/kg/injection, schedule: Q01DX001 (ip), vehicle: carboxymethylcellulose (CMC)) 152 % of control.
Take `NCCCCC(N)C(=O)CCl` (centres undefined): the T/C was 110 % of control (dose: 25.0 mg/kg/injection, schedule: Q04DX002 (ip), vehicle: saline); 97 % of control (dose: 50.0 mg/kg/injection, schedule: Q04DX002 (ip), vehicle: saline); 94 % of control (dose: 100.0 mg/kg/injection, schedule: Q04DX002 (ip), vehicle: saline).
On to `CCN1C(=S)N(C)C(=O)/C1=C\N(C(C)=O)c1ccccc1`, for which the T/C runs as follows: (dose: 50.0 mg/kg/injection, schedule: Q04DX003 (ip), vehicle: Klucel (hydroxypropylcellulose) (HPC)) 103 % of control; (dose: 100.0 mg/kg/injection, schedule: Q01DX001 (ip), vehicle: Klucel (hydroxypropylcellulose) (HPC)) 104 % of control; under setting [5], 112 % of control; (dose: 200.0 mg/kg/injection, schedule: Q01DX001 (ip), vehicle: Klucel (hydroxypropylcellulose) (HPC)) 104 % of control; under setting [6], 100 % of control; (dose: 400.0 mg/kg/injection, schedule: Q01DX001 (ip), vehicle: Klucel (hydroxypropylcellulose) (HPC)) 102 % of control.
Take `Cc1ccc(N=C2C=CC(=O)O2)cc1`: the T/C under setting [3] is 98 % of control; the T/C (dose: 200.0 mg/kg/injection, schedule: Q01DX009 (ip), vehicle: saline with Tween-80) was 100 % of control; the T/C (dose: 400.0 mg/kg/injection, schedule: Q01DX009 (ip), vehicle: saline with Tween-80) was 95 % of control.
For `O=C(Nc1ccccc1-c1ccc([N+](=O)[O-])cc1)c1cc(Cl)cc(Cl)c1`, the T/C runs as follows: under setting [1], 88 % of control; under setting [2], 88 % of control.
As for `CCN1CCc2ccccc2C1c1ccccc1` (centres undefined), the T/C was 104 % of control (dose: 25.0 mg/kg/injection, schedule: Q01DX009 (ip), vehicle: saline); 103 % of control (dose: 50.0 mg/kg/injection, schedule: Q01DX009 (ip), vehicle: saline); 106 % of control and 115 % of control (dose: 100.0 mg/kg/injection, schedule: Q01DX009 (ip), vehicle: saline).
On to `O=C(NP(=O)(N1CC1)N1CC1)OCCCCCCOC(=O)NP(=O)(N1CC1)N1CC1`, for which the T/C was 101 % of control under setting [4]; 113 % of control (dose: 200.0 mg/kg/injection, schedule: Q01DX001 (ip), vehicle: carboxymethylcellulose (CMC)); 108 % of control (dose: 400.0 mg/kg/injection, schedule: Q01DX001 (ip), vehicle: carboxymethylcellulose (CMC)).
On to `CN(C)c1ccc(/C(=C(\c2ccccc2)c2ccc(N(C)C)cc2)c2ccccc2)cc1`, for which the T/C is, setting by setting: under setting [5], 90 % of control; under setting [6], 93 % of control; (dose: 400.0 mg/kg/injection, schedule: Q04DX003 (ip), vehicle: Klucel (hydroxypropylcellulose) (HPC)) 89 % of control.

The record behind these values is PubChem BioAssay AID248 (DTP/NCI, 2004).
